Assays:
choline transporters = experiment: In vitro determination of IC50: inhibition of [^3H]choline chloride accumulation in PC-3 cells; assay type: cell-based; conditions: cell line PC-3 (human prostate carcinoma), [^3H]choline chloride 0.81 × 10^-6 M, 60 min at 37 °C
Description: IC50 value corresponds to a concentration of the given analog of choline which reduces the accumulation of choline chloride, the natural ligand of choline transporterss, to 50 % of the maximum value. For the assay, the tritium labeled choline chloride, i.e. [^3H]choline chloride, was used. The assay was performed in vitro on the cell line PC-3 derived from a human prostate carcinoma, which is known to overexpress choline transporters. […] As the negative control, a cell line of human ovarian carcinoma SKOV3 prepared to the confluence of 90 % in 24-well plates was used.
The cultivation medium was removed from the thus prepared cells in cultivation plates and the cells were rinsed with phosphate buffered saline (PBS). Subsequently, 0.3 mL of "incubation buffer" (25 mM Tris/HCl, 5.4 mM KCl, 1.8 mM CaCl2, 0.8 mM MgSO4, 5 mM glucose, 140 mM NaCl, pH adjusted to 7.4) was added to the cells. Then 0.1 mL of the solution of the tested substance (analog of choline) in the incubation buffer was added to the PC-3 cells in such concentrations, that after adding [^3H]choline chloride the resulting concentrations of the tested analog would be following: 0 M, 10^-8 M, 10^-7 M, 10^-6 M, 5 × 10^-6 M, 10^-5 M, 10^-4 M, 5 × 10^-4 M, 10^-3 M, 5×10^-3 M. Each concentration was tested in triplicate.
Subsequently, all cells prepared in this manner (PC-3 and SKOV3) were incubated with the analogs of choline for 15 minutes at the temperature of 37 °C.
Then 0.1 mL of the solution of the [^3H]choline chloride in the incubation buffer was added to all cell-containing wells, so that 0.1 mL of the solution had the activity of 15 kBq and that the final concentration of the [^3H]choline chloride in the medium with the cells was 0.81 × 10^-6 M. The cells were then incubated at 37 °C for a period of 60 min. After the incubation, all buffer solution was removed from the cells. The cells were rinsed with PBS, which was subsequently removed, and 0.2 mL of aqueous NaOH solution (0.1 M) was added to each well. The cells were incubated with sodium hydroxide for 30 min at 37 °C. The lysate was then homogenized with a pipette and 10 µL of the lysate were used for the determination of protein concentration by bicinchonic acid assay (BCA).
The remaining lysate (180 µL) was quantitatively transferred into scintillation vials containing a previously prepared scintillation solution (2 mL of the solution in each vial). Each well was then additionally rinsed with 0.2 mL of pure water and this solution was added to the corresponding scintillation vials. Scintillation vials were closed and their content was stirred on a shaker.
To another three scintillation vials containing scintillation solution (2 mL of the solution in each vial) the standard samples of [^3H]choline chloride were added (i.e. 10 µl of the [^3H]choline chloride solution together with 180 µl of aqueous NaOH solution (0.1 M) and 200 µl of water). The vials were closed and their content was stirred on the shaker.
Subsequently, radioactivity of each scintillation vial was measured using a liquid scintillation counter (Tri-Carb 2910TR Liquid Scintillation Counter, PerkinElmer). The recorded counts per second (cps) were then used to calculate the accumulation of [^3H]choline chloride in the individual cell samples. […] These values were used to construct a sigmoid curve of dependence between the rate of [^3H]choline chloride accumulation and the competing ligand (analog of choline) concentration(inhibition curve, Figure 2). The IC50 values were calculated from these inhibition curves.

[1] = Binding to plasmatic proteins; conditions: plasma
in vitro = conditions: liver microsomes
Microsomal stability = conditions: hepatic microsomes

Compound: OCC[N+]1(CCOc2ccc(I)cc2)CCCC1 [Example 26, 1-(2-hydroxyethyl)-1-[2-(4-iodophenoxy)ethyl]pyrrolidin-1-ium bromide]
- IC50 (choline transporters): 18 µM

Compound: Cc1ccc(S(=O)(=O)[O-])cc1.OCC[N+]1(Cc2ccccc2I)CCCCC1 [Example 14, 1-(2-hydroxyethyl)-1-(2-iodobenzyl)piperidin-1-ium 4-methylbenzenesulfonate]
- IC50 (choline transporters): 190 µM
- fraction unbound [1]: 0.831
- microsomal CLint (in vitro): 22.6 µL/min/mg
- Microsomal stability t1l2 (Microsomal stability): 61.3 min
- Plasma stability (120 min) (Stability in the plasma): 80.7%

Compound: C[N+](C)(CCO)Cc1ccccc1I.Cc1ccc(S(=O)(=O)[O-])cc1 [Example 19, (2-hydroxyethyl)-(2-iodobenzyl)-dimethylammonium 4-methylbenzenesulfonate]
- IC50 (choline transporters): 160 µM
- fraction unbound [1]: 0.661
- microsomal CLint (in vitro): 166 µL/min/mg
- Microsomal stability t1l2 (Microsomal stability): 8.3 min
- Plasma stability (120 min) (Stability in the plasma): 91.3%

Compound: COc1ccc(CCC[N+](C)(C)CCO)cc1I.Cc1ccc(S(=O)(=O)[O-])cc1 [Example 4, (2-hydroxyethyl)-[3-(3-iodo-4-methoxyphenyl)propyl]-dimethylammonium 4-methylbenzenesulfonate]
- IC50 (choline transporters): 19 µM
- fraction unbound [1]: 0.715
- microsomal CLint (in vitro): 1120 µL/min/mg
- Microsomal stability t1l2 (Microsomal stability): 1.2 min
- Plasma stability (120 min) (Stability in the plasma): 63.9%

Compound: Cc1ccc(S(=O)(=O)[O-])cc1.OCC[N+]1(CCc2ccc(I)cc2)CCCC1 [Example 7, 1-(2-hydroxyethyl)-1-[2-(4-iodophenyl)ethyl]pyrrolidin-1-ium 4-methylbenzenesulfonate]
- IC50 (choline transporters): 16 µM
- fraction unbound [1]: 0.833
- microsomal CLint (in vitro): 90.6 µL/min/mg
- Microsomal stability t1l2 (Microsomal stability): 15.3 min
- Plasma stability (120 min) (Stability in the plasma): 97.6%

Compound: OCC[N+]1(CCCCCCOc2cccc(I)c2)CCCC1 [Example 30, 1-(2-hydroxyethyl)-1-[6-(3-iodophenoxy)hexyl]pyrrolidin-1-ium bromide]
- IC50 (choline transporters): 0.91 µM

Compound: OCC[N+]1(CCOc2ccccc2I)CCCC1 [Example 24, 1-(2-hydroxyethyl)-1-[2-(2-iodophenoxy)ethyl]pyrrolidin-1-ium bromide]
- IC50 (choline transporters): 4.7 µM

Compound: C[N+](C)(CCO)CCc1ccc(I)cc1.Cc1ccc(S(=O)(=O)[O-])cc1 [Example 5, (2-hydroxyethyl)-[2-(4-iodophenyl)ethyl]-dimethylammonium 4-methylbenzenesulfonate]
- IC50 (choline transporters): 7.4 µM
- fraction unbound [1]: 0.653
- microsomal CLint (in vitro): 88.6 µL/min/mg
- Microsomal stability t1l2 (Microsomal stability): 15.6 min
- Plasma stability (120 min) (Stability in the plasma): 43.0%

Compound: OCC[N+]1(Cc2cccc(I)c2)CCCC1 [Example 10, 1-(2-hydroxyethyl)-1-(3-iodobenzyl)pyrrolidin-1-ium methanesulfonate]
- IC50 (choline transporters): 13 µM

Compound: C[N+](C)(CCO)CCCCOc1ccc(-c2ccccc2)cc1I [Example 39, (2-hydroxyethyl)-{4-[(3-iodo-[1,1'-biphenyl]-4-yl)oxy]butyl}-dimethylammonium bromide]
- IC50 (choline transporters): 1.3 µM

Compound: C[N+](C)(CCO)CCCCCCOc1cccc(I)c1 [Example 29, (2-hydroxyethyl)-[6-(3-iodophenoxy)hexyl]-dimethylammonium bromide]
- IC50 (choline transporters): 0.044 µM

Compound: OCC[N+]1(Cc2ccc(I)cc2)CCCC1 [Example 13, 1-(2-hydroxyethyl)-1-(4-iodobenzyl)pyrrolidin-1-ium bromide]
- IC50 (choline transporters): 29 µM

Compound: C[N+](C)(CCO)Cc1ccc(I)cc1 [Example 11, (2-hydroxyethyl)-(4-iodobenzyl)-dimethylammonium bromide]
- IC50 (choline transporters): 150 µM

Compound: C[N+](C)(CCO)CCCCCCOc1cccnc1I [Example 37, (2-hydroxyethyl)-{6-[(2-iodopyridin-3-yl)oxy]hexyl}-dimethylammonium bromide]
- IC50 (choline transporters): 1.4 µM

Compound: C[N+](C)(CCO)CCc1ccc(I)s1 [Example 33, (2-hydroxyethyl)-[2-(5-iodothiophen-2-yl)ethyl]-dimethylammonium 4-methylbenzenesulfonate]
- IC50 (choline transporters): 0.45 µM

Compound: OCC[N+]1(Cc2ccc(I)cc2)CCCC1 [Example 20, 1-(2-hydroxyethyl)-1-(4-iodobenzyl)pyrrolidin-1-ium 4-methylbenzenesulfonate]
- IC50 (choline transporters; 4-methylbenzenesulfonate): 6.3 µM
- microsomal CLint (in vitro): 310 µL/min/mg

Compound: C[N+](C)(CCO)CCCCOc1ccccc1I [Example 31, (2-hydroxyethyl)-[4-(2-iodophenoxy)butyl]-dimethylammonium bromide]
- IC50 (choline transporters): 11 µM

Compound: (2-hydroxyethyl)-{4-[(2-iodo-6-methylpyridin-3-yl)oxy]butyt}-dimethylammonium bromide [Example 38]
- IC50 (choline transporters): 18 µM

Compound: CCCCCCOc1ccc(CCC[N+](C)(C)CCO)cc1I [Example 21, [3-(4-hexyloxy-3-iodophenyl)propyl]-(2-hydroxyethyl)-dimethylammonium 4-methylbenzenesulfonate]
- IC50 (choline transporters): 0.43 µM

Compound: C[N+](C)(CCO)CCOc1cccc(I)c1 [Example 27, (2-hydroxyethyl)-[2-(3-iodophenoxy)ethyl]-dimethylammonium bromide]
- IC50 (choline transporters): 22 µM

Compound: OCC[N+]1(Cc2ccc(I)cc2)CCOCC1 [Example 35, 4-(2-hydroxyethyl)-4-(4-iodobenzyl)morpholin-4-ium bromide]
- IC50 (choline transporters): 270 µM

Compound: C[N+](C)(CCO)CCOc1ccc(I)cc1 [Example 25, (2-hydroxyethyl)-[2-(4-iodophenoxy)ethyl]-dimethylammonium bromide]
- IC50 (choline transporters): 23 µM

Compound: CCCCCCCCCCOc1ccc(CCC[N+](C)(C)CCO)cc1I [Example 22, [3-(4-decyloxy-3-iodophenyl)propyl]-(2-hydroxyethyl)-dimethylammonium methanesulfonate]
- IC50 (choline transporters): 1.9 µM

Compound: OCC[N+]1(CCc2ccc(I)s2)CCCC1 [Example 34, 1-(2-hydroxyethyl)-1-[2-(5-iodothiophen-2-yl)ethyl]pyrrolidin-1-ium 4-methylbenzenesulfonate]
- IC50 (choline transporters): 10 µM

Compound: C[N+](C)(CF)CCO [Fluoromethylcholine, reference compound]
- IC50 (choline transporters): 16 µM

Compound: C[N+](C)(C)CCO [Choline]
- IC50 (choline transporters): 3.7 µM

Compound: C[N+](C)(CCO)Cc1cccc(I)c1 [Example 9, (2-hydroxyethyl)-(3-iodobenzyl)-dimethylammonium methanesulfonate]
- IC50 (choline transporters): 99 µM

Compound: OCC[N+]1(CCOc2cccc(I)c2)CCCC1 [Example 28, 1-(2-hydroxyethyl)-1-[2-(3-iodophenoxy)ethyl]pyrrolidin-1-ium bromide]
- IC50 (choline transporters): 15 µM

Compound: OCC[N+]1(Cc2ccccc2I)CCOCC1 [Example 36, 4-(2-hydroxyethyl)-4-(2-iodobenzyl)morpholin-4-ium chloride]
- IC50 (choline transporters): 43 µM

Compound: C[N+](C)(CCO)CCCCCCOc1ccc(I)c([N+](=O)[O-])c1 [Example 40, (2-hydroxyethyl)-[6-(4-iodo-3-nitrophenoxy)hexyl]-dimethylammonium bromide]
- IC50 (choline transporters): 0.14 µM

Compound: CC[N+](CC)(CCO)Cc1ccc(I)cc1 [Example 12, diethyl-(2-hydroxyethyl)-(4-iodobenzyl)ammonium bromide]
- IC50 (choline transporters): 80 µM

Compound: OCC[N+]1(CCCCOc2ccccc2I)CCCC1 [Example 32, 1-(2-hydroxyethyl)-1-[4-(2-iodophenoxy)butyl]pyrrolidin-1-ium bromide]
- IC50 (choline transporters): 5.1 µM
